Data as given in ChEMBL document CHEMBL1158987, “Isolation and structure determination of novel phosphatidylinositol kinase inhibitors, echiguanines A and B, from Streptomyces sp” (J Nat Prod, 1991).
Converted amounts (≈) assume the structure as drawn.

Assay: Toxicity in ip dosed mouse
Assay type: organism-based
Conditions: in vivo

| Structure (SMILES) | LD50 [mg/kg] |
| --- | --- |
| NCCCNC(=O)c1c[nH]c2nc(N)nc(O)c12 [ECHIGUANINE B] | > 100 |
| N=C(N)CCNC(=O)c1c[nH]c2nc(N)nc(O)c12 [ECHIGUANINE A] | > 100 |

Assay: Inhibition of phosphatidylinositol 4-kinase in human A431 cell membrane by liquid scintillation counting
Assay type: cell-based
Conditions: a-431

| Structure (SMILES) | IC50 [µg/mL] |
| --- | --- |
| O=Cc1cccc(O)c1O | 0.45 (≈ 3.26 µM) |
| O=c1c(-c2ccc(O)c(O)c2)coc2cc(O)cc(O)c12 [OROBOL] | 0.25 (≈ 0.873 µM) |
| N#Cc1cn([C@@H]2O[C@H](CO)[C@@H](O)[C@H]2O)c2ncnc(N)c12 [TOYOCAMYCIN] | 3.3 (≈ 11.3 µM) |
| Nc1nc2[nH]cnc2c(=O)[nH]1 [GUANINE] | > 100 |
| Nc1[nH]cnc2ncnc1-2 [ADENINE] | > 100 |
| O=c1[nH]cnc2nc[nH]c12 [HYPOXANTHINE] | > 100 |
| NCCCNC(=O)c1c[nH]c2nc(N)nc(O)c12 [ECHIGUANINE B] | 0.11 (≈ 0.44 µM) |
| Nc1nc2c(c(=O)[nH]1)CC=N2 [7-DEAZAGUANINE] | 35 (≈ 233 µM) |
| O=c1c(O)c(-c2ccc(O)c(O)c2)oc2cc(O)cc(O)c12 [QUERCETIN] | 1.8 (≈ 5.96 µM) |
| Nc1nc(=O)[nH]c2nc[nH]c12 [ISOGUANINE] | > 100 |
| N=C(N)CCNC(=O)c1c[nH]c2nc(N)nc(O)c12 [ECHIGUANINE A] | 0.04 (≈ 0.152 µM) |
